Common to all, as to format: cell-based
In series [1] the test system is virus-uninfected MT-4 cells. The series is described as follows: Cytotoxicity Test I: virus-uninfected MT-4 cells, MTT method. The note with it: for SI: CC50 (Test I)/EC50: selective index, MT-4 CC50 over anti-HIV EC50; for cytotoxicity in words, compared with conventional T134/T140: conclusion drawn from Table 3. The method, then: (§1) HIV-1 (IIIB) strain obtained from MOLT/HIV-1 (IIIB) cell previously infected by HIV-1 was used. The polypeptide of the present invention was added to MT-4 CD4^+ T cells infected by HIV in various kinds of concentrations, and a number of living cells after culturing at 37° C. for 5 days was determined by using a 3′-(4,5-dimethylthiazol-2-yl)-2,5-diphenyltetrazolinium bromide (MTT) method. Anti-HIV activity is shown by a concentration (EC50 value), where MT-4 cell death by HIV infection is inhibited by 50%. Cytotoxicity of the peptide according to the present invention was shown by a 50% survival concentration (Test I: CC50 value) by culturing virus-uninfected MT-4 cells with the polypeptide according to the present invention in various concentrations, and determining a number of living cells by the MTT method. Moreover, a number of living cells of human peripheral blood mononuclear cells (monocyte) (PBMC) was determined by trypan blue dyeing method, and shown by a 50% survival concentration (Test II: CC50 value). Respective ratios of the CC50 value and the EC50 value were shown as a selective index (SI). Obtained values were summarized in Table 3 using the conventionally known polypeptides T134 and T140, and an anti-HIV compound: 3′-azido-2′,3′-dideoxythymidine (AZT) used as a medicine as a control anti-HIV agent.
For orientation: Tetrazolium dyes change colour on reduction, which living cells bring about.

Assay in series [2]: as above
To be noted: human, virus-uninfected MT-4 cells, MTT method, read-out: CC50 (Test I), 50% survival concentration. Here is the method:
as §1

Series [3] has as its system human peripheral blood mononuclear cells (PBMC). The series is described as follows: Cytotoxicity Test II: human PBMC, trypan blue dyeing method. To be noted: selective index, PBMC CC50 over anti-HIV EC50.
Assay in series [4]: as above
To be noted: human PBMC, trypan blue dyeing method, read-out: CC50 (Test II), 50% survival concentration.

The next series relates to HIV-1 (IIIB) strain. The series is described as follows: Anti-HIV activity: inhibition of MT-4 cell death by HIV infection (MTT method). The note with it: for pEC50: MT-4 CD4+ T cells infected by HIV-1 (IIIB), 37° C., 5 days, MTT, average of at least three measurements, read-out: EC50 (concentration where MT-4 cell death by HIV infection is inhibited by 50%). Here is the method:
as §1

pEC50: −log10 of the molar value. Where two headings read alike, the source gives them in different places. Where a SMILES comes first, the peptide text is derived from it. Bridges are numbered along the chain shown (N, C = ends). [ ]: non-standard residue; d: D form. 2Nal = N[C@@H](Cc1ccc2ccccc2c1)C(=O)O; Cit = NC(=O)NCCC[C@H](N)C(=O)O

As for `NCCCC[C@@H]1NC(=O)[C@H](CCCN=C(N)N)NC(=O)[C@H](Cc2ccc(O)cc2)NC(=O)[C@@H](NC(=O)[C@H](Cc2c[nH]c3ccccc23)NC(=O)[C@H](CCCN=C(N)N)NC(=O)[C@@H](N)CCCN=C(N)N)CSSC[C@@H](C(=O)N[C@@H](CCCN=C(N)N)C(=O)O)NC(=O)[C@H](CCCNC(N)=O)NC(=O)[C@H](CCCN=C(N)N)NC(=O)[C@H](Cc2ccc(O)cc2)NC(=O)[C@@H]2CCCN2C(=O)[C@@H](CCCCN)NC1=O` [Compound T134, H-Arg-Arg-Trp-Cys-Tyr-Arg-Lys-DLys-Pro-Tyr-Arg-Cit-Cys-Arg-OH, reference compound] (H-RRWCYRK[dK]PYR[Cit]CR-OH; disulfide 4-13), the “SI: CC50 (Test I)/EC50” value in series [1] is on record as >>120. Also, the CC50 in series [2] (MT-4 cells (virus-uninfected)) is over 1 µM; in series [4], 190 µM. Further, the “SI: CC50 (Test II)/EC50” value in series [3] came out at 23000.
On the same counts, the results for `NCCCC[C@@H]1NC(=O)[C@H](CCCN=C(N)N)NC(=O)[C@H](Cc2ccc(O)cc2)NC(=O)[C@@H](NC(=O)[C@H](Cc2ccc3ccccc3c2)NC(=O)[C@H](CCCN=C(N)N)NC(=O)[C@@H](N)CCCN=C(N)N)CSSC[C@@H](C(=O)N[C@@H](CCCN=C(N)N)C(=O)O)NC(=O)[C@H](CCCNC(N)=O)NC(=O)[C@H](CCCNC(N)=O)NC(=O)[C@H](Cc2ccc(O)cc2)NC(=O)[C@@H]2CCCN2C(=O)[C@@H](CCCCN)NC1=O` [TC14006, H-Arg-Arg-Nal-Cys-Tyr-Arg-Lys-DLys-Pro-Tyr-Cit-Cit-Cys-Arg-OH] (H-RR[2Nal]CYRK[dK]PY[Cit][Cit]CR-OH; disulfide 4-13) are over 5300, over 80 µM, 310 µM and 20000.
Take `NCCCC[C@H]1NC(=O)[C@H](CCCNC(N)=O)NC(=O)[C@H](CCCN=C(N)N)NC(=O)[C@H](Cc2ccc(O)cc2)NC(=O)[C@@H](NC(=O)[C@H](Cc2ccc3ccccc3c2)NC(=O)[C@H](CCCN=C(N)N)NC(=O)[C@@H](N)CCCN=C(N)N)CSSC[C@@H](C(=O)N[C@@H](CCCN=C(N)N)C(=O)O)NC(=O)[C@H](CCCNC(N)=O)NC(=O)[C@H](CCCN=C(N)N)NC(=O)[C@H](Cc2ccc(O)cc2)NC(=O)[C@@H]2CCCN2C1=O` [TC14004, H-Arg-Arg-Nal-Cys-Tyr-Arg-Cit-DLys-Pro-Tyr-Arg-Cit-Cys-Arg-OH] (H-RR[2Nal]CYR[Cit][dK]PYR[Cit]CR-OH; disulfide 4-13): the “SI: CC50 (Test I)/EC50” value in series [1] is reported as over 5000. Further, the CC50 is over 80 µM in series [2] (MT-4 cells (virus-uninfected)) and 270 µM in series [4]. Moreover, in series [3], the “SI: CC50 (Test II)/EC50” value turned out to be 16000.
`N=C(N)NCCC[C@H](NC(=O)[C@@H]1CSSC[C@H](NC(=O)[C@H](Cc2ccc3ccccc3c2)NC(=O)[C@H](CCCNC(=N)N)NC(=O)[C@@H](N)CCCNC(=N)N)C(=O)N[C@@H](Cc2ccc(O)cc2)C(=O)N[C@@H](CCCNC(=N)N)C(=O)N[C@@H](CCCCN)C(=O)N[C@H](CCCNC(N)=O)C(=O)N2CCC[C@H]2C(=O)N[C@@H](Cc2ccc(O)cc2)C(=O)N[C@@H](CCCNC(=N)N)C(=O)N[C@@H](CCCNC(N)=O)C(=O)N1)C(N)=O` [TN14005, H-Arg-Arg-Nal-Cys-Tyr-Arg-Lys-DCit-Pro-Tyr-Arg-Cit-Cys-Arg-NH2]: in series [1], the “cytotoxicity in words, compared with conventional T134/T140” value is listed as “cytotoxicity is markedly lowered” and the “SI: CC50 (Test I)/EC50” value was over 21000. The CC50 in series [2] (MT-4 cells (virus-uninfected)) is over 100 µM. Moreover, the pEC50 in the series with HIV-1 (IIIB) strain was 8.34.
As for `Cc1cn([C@H]2C[C@H](N=[N+]=[N-])[C@@H](CO)O2)c(=O)[nH]c1=O` [AZT, 3′-azido-2′,3′-dideoxythymidine, reference compound], the “SI: CC50 (Test I)/EC50” value in series [1] is 4000. For the same compound, the CC50 was 190 µM in series [2] and under 20 µM in series [4] (peripheral blood mononuclear cells (PBMC)). The pEC50 with HIV-1 (IIIB) strain (Human immunodeficiency virus 1, MT4, 120 h) is 7.32. For the same compound, the “SI: CC50 (Test II)/EC50” value in series [3] is given as under 410.
On to `NCCCC[C@@H]1NC(=O)[C@H](CCCNC(N)=O)NC(=O)[C@H](Cc2ccc(O)cc2)NC(=O)[C@@H](NC(=O)[C@H](Cc2ccc3ccccc3c2)NC(=O)[C@H](CCCN=C(N)N)NC(=O)[C@@H](N)CCCN=C(N)N)CSSC[C@@H](C(=O)N[C@@H](CCCN=C(N)N)C(=O)O)NC(=O)[C@H](CCCNC(N)=O)NC(=O)[C@H](CCCN=C(N)N)NC(=O)[C@H](Cc2ccc(O)cc2)NC(=O)[C@@H]2CCCN2C(=O)[C@@H](CCCCN)NC1=O` [TC14003, H-Arg-Arg-Nal-Cys-Tyr-Cit-Lys-DLys-Pro-Tyr-Arg-Cit-Cys-Arg-OH] (H-RR[2Nal]CY[Cit]K[dK]PYR[Cit]CR-OH; disulfide 4-13), for which the “cytotoxicity in words, compared with conventional T134/T140” value in series [1] is “cytotoxicity is markedly lowered”. Further, in series [1], the “SI: CC50 (Test I)/EC50” value was over 29000. Besides, the CC50 was over 80 µM in series [2] (MT-4 cells (virus-uninfected)) and 310 µM in series [4]. Further, the “SI: CC50 (Test II)/EC50” value in series [3] was 160000.
For the compound `N=C(N)NCCC[C@H](NC(=O)[C@@H]1CSSC[C@H](NC(=O)[C@H](Cc2ccc3ccccc3c2)NC(=O)[C@H](CCCNC(=N)N)NC(=O)[C@@H](N)CCCNC(=N)N)C(=O)N[C@@H](Cc2ccc(O)cc2)C(=O)N[C@@H](CCCNC(N)=O)C(=O)N[C@@H](CCCCN)C(=O)N[C@H](CCCNC(N)=O)C(=O)N2CCC[C@H]2C(=O)N[C@@H](Cc2ccc(O)cc2)C(=O)N[C@@H](CCCNC(=N)N)C(=O)N[C@@H](CCCNC(N)=O)C(=O)N1)C(=O)O` [TC14011, H-Arg-Arg-Nal-Cys-Tyr-Cit-Lys-DCit-Pro-Tyr-Arg-Cit-Cys-Arg-OH], in series [1], the “cytotoxicity in words, compared with conventional T134/T140” value is “lowered cytotoxicity” and the “SI: CC50 (Test I)/EC50” value was over 200000. Further, the CC50 in series [2] (MT-4 cells (virus-uninfected)) was over 100 µM. Moreover, in the series on HIV-1 (IIIB) strain, the pEC50 was 9.30.
Take `N=C(N)NCCC[C@H](NC(=O)[C@@H]1CSSC[C@H](NC(=O)[C@H](Cc2ccc3ccccc3c2)NC(=O)[C@H](CCCNC(=N)N)NC(=O)[C@@H](N)CCCNC(=N)N)C(=O)N[C@@H](Cc2ccc(O)cc2)C(=O)N[C@@H](CCCNC(N)=O)C(=O)N[C@@H](CCCCN)C(=O)N[C@H](CCCNC(N)=O)C(=O)N2CCC[C@H]2C(=O)N[C@@H](Cc2ccc(O)cc2)C(=O)N[C@@H](CCCNC(=N)N)C(=O)N[C@@H](CCCNC(N)=O)C(=O)N1)C(N)=O` [TC14012, H-Arg-Arg-NaI-Cys-Tyr-Cit-Lys-DCit-Pro-Tyr-Arg-Cit-Cys-Arg-NH2]: in series [1], the “cytotoxicity in words, compared with conventional T134/T140” value is listed as “lowered cytotoxicity” and the “SI: CC50 (Test I)/EC50” value is over 250000. Further, the CC50 in series [2] (MT-4 cells (virus-uninfected)) was over 100 µM. In addition, in the series with HIV-1 (IIIB) strain, the pEC50 was 9.40. Besides, the “anti-HIV activity in words, compared with T140” value with HIV-1 (IIIB) strain (conclusion drawn from Table 3) was “higher anti-HIV activity”.
For the compound `N=C(N)NCCC[C@H](NC(=O)[C@@H]1CSSC[C@H](NC(=O)[C@H](Cc2ccc3ccccc3c2)NC(=O)[C@H](CCCNC(=N)N)NC(=O)[C@@H](N)CCCNC(N)=O)C(=O)N[C@@H](Cc2ccc(O)cc2)C(=O)N[C@@H](CCCNC(=N)N)C(=O)N[C@@H](CCCCN)C(=O)N[C@H](CCCNC(N)=O)C(=O)N2CCC[C@H]2C(=O)N[C@@H](Cc2ccc(O)cc2)C(=O)N[C@@H](CCCNC(=N)N)C(=O)N[C@@H](CCCNC(N)=O)C(=O)N1)C(N)=O` [TC14018, H-Cit-Arg-Nal-Cys-Tyr-Arg-Lys-DCit-Pro-Tyr-Arg-Cit-Cys-Arg-NH2], in series [1], the “cytotoxicity in words, compared with conventional T134/T140” value is reported as “lowered cytotoxicity” and the “SI: CC50 (Test I)/EC50” value was over 83000. Besides, the CC50 in series [2] (MT-4 cells (virus-uninfected)) was over 100 µM. For the same compound, the pEC50 in the series with HIV-1 (IIIB) strain was 8.92.

These data come from patent US8435939B2, “Polypeptide anti-HIV agent containing the same” (priority 2000, dated 2013).
